Reference: patent EP3324923B1, “COMPOSITIONS AND METHODS USING PALYTHINE” (King's College London, priority 2015, dated 2017)

Experiments:
Absorbance profile = type: physicochemical; conditions: Example 14
Description: (§1) palythine was extracted from the red algae Palmaria decipiens using a methanol extraction (Confirmed by HPLC & LC-MS). The absorbance profile was determined and then the extract was exposed to increasing doses of solar simulated radiation (SSR) from a solar simulator (conforming to COLIPA standards). The absorbance profile was measured to determine photostability. Compositions according to the invention (in this example solutions of palythine) were prepared at different palythine concentrations (0.3% to 10%), as well as controls comprising 0% palythine, and HaCat keratinocytes were irradiated with SSR or UVA radiation through the solutions, which were placed on top of the cells.
(§2) Palythine was exposed to increasing doses of solar simulated radiation and absorbance measured. The absorbance spectrum of the palythine was measured between 280-400 nm using a Spectra Max 384 Plus (Molecular Devices; California, USA) spectrophotometer. Referring to figure 18, we show the photostability of palythine after exposure to increasing doses of solar simulated radiation. Palythine (0.0001% w/v palythine extracted from red algae Chondrus yendoi in PBS) was exposed to increasing doses of solar simulated radiation and the absorbance was measured to determine photostability.

[1] = Photostability under increasing doses of solar simulated radiation (absorbance); type: physicochemical
Description: as §1, §2

HaCaT keratinocytes = assay: CPD DNA lesion formation by IHC-IF; type: cell-based, human; conditions: 20J/cm^2 SSR; palythine 0.3-10%w/v; immediately post exposure; n=3; p<0.0001
Description: HaCat keratinocytes were irradiated with 20J/cm^2 of solar simulated UVR radiation with 0% (PBS alone), 0.3%, 4% or 10% of palythine. The relative formation of the CPD DNA lesion was measured by IHC-IF and the relative fluorescent intensity plotted. The data in figure 11 show protection by palythine against solar simulated UVR induced CPD formation by IHC-IF.
The radiation procedure was carried out as described above. Cells were washed, then fixed in 2 % (v/v) paraformaldehyde with 0.5 % (v/v) Triton X-100 in PBS for 30 mins at 4 °C. DNA was then denatured by incubation in 2 M HCl for 10 mins at 37 °C. Nonspecific sites were blocked using blocking buffer of 20 % (v/v) goat serum and 0.1 % (v/v) triton x-100 in PBS for 30 mins at room temperature. The primary antibody used was Anti-CPD (Clone TDM-2) (Cosmobio, Tokyo, Japan) at 1:1000 in blocking buffer for 1 hr at room temperature. Alexafluor 488 was diluted in blocking buffer (1:200 dilution) and incubated for 1 hr at room temperature and finally DAPI was added for 10 mins. Washing was carried out (3x5 mins) between each step.
All assays were performed on HaCat cells grown as a 70-80 % confluent monolayer in multiwell plates. They were washed three times in PBS and covered with palythine dissolved in PBS at differing concentrations (0, 0.1, 0.3 %, 4 % and 10 % w/v). […]

COC1=C(NCC(=O)O)CC(O)(CO)CC1=N (stereo not shown) [palythine]
absorbing in the UVB and UVA ranges (Absorbance profile): 290-350 nm | photostability ([1]; after 40SED of solar simulated radiation, 0.0001% w/v palythine from Chondrus yendoi in PBS, absorbance 280-400 nm): extremely photostable with negligible photodegradation | photostability ([1]; after 60 standard erythema doses (SED) of SSR, palythine from Palmaria decipiens): extremely photostable | CPD production compared to irradiated control (HaCaT keratinocytes): significant reduction
